From US6204283A, “Parasitic mite control on beneficial insects” (American Cyanamid Company, priority 1999, dated 2001)

Experiments:
Type in all cases: in vivo
Varroa jacobsoni = test: Field evaluation against Varroa jacobsoni parasites in infested beehives (stickyboard count); conditions: two strips containing 18% tebufenpyrad in 60:40 beeswax:lard, 24 hours after treatment
From the text: Field Evaluation Of The Efficiacy Of Test Compound Against Varroa jacobsoni Parasites
In this evaluation, two Varroa jacobsoni infested beehives are monitored for the extent of infestation using stickyboards inserted at the bottom of the hive. Data are presented as the number of mites trapped on the stickyboard per day. Two strips (2.5×17 cm) containing 18% tebufenpyrad dissolved in a 60:40 beeswax:lard (Crisco®) mixture are inserted into each hive brood chamber as per standard practice. One day after treatment, the stickyboards are removed and the dead mites counted.

[1] = tested on: Varroa jacobsoni (Varroa mites); test: Efficacy against Varroa jacobsoni parasites on infested honeybees, topical application (mite mortality); conditions: 120 h, topical 1 μl acetone solution, 5 days, 31° C.
Procedure: (§1) Evaluation Of The Efficacy Of Test Compound Against Varroa jacobsoni Parasites
(§2) In this evaluation, honeybees (Apis mellifera) taken from hives which are 70-90% infested with Varroa jacobsoni (Varroa mites) are chilled to immobilize the bees. A 1 μl droplet of an acetone solution of tebufenpyrad is applied to the dorsal abdomen of each bee. Control bees receive 1 μl droplet of acetone. A total of 50-52 bees are treated for each dose rate tested. Treatment dose rates are based upon the LD50 (dose rate required to obtain 50% mortality of healthy uninfected bees) of tebufenypyrad and are set at 10% of the LD50 and subsequent 10-fold dilution thereof. The treated bees are placed in an incubator at 31° C. in the dark and fed 50% sugar water ad libitum for 5 days. After incubation, the bees are examined for mortality and mite infestation. The results are shown in Table I below, as % mortality of the total of the bees and the total of the mites.

[2] = tested on: honeybees (Apis mellifera); test: Mortality of the Varroa-infested honeybees, topical application; conditions: 120 h, topical 1 μl acetone solution, 5 days, 31° C., read-out: % Mortality, Bees
Procedure: as §1, §2

[3] = tested on: Acarapis woodi (trachea mites); test: Efficacy against Acarapis woodi parasites on treated glass slides; conditions: slides dipped in 500 ppm acetone solution
From the text: Evaluation Of The Efficacy Of Test Compound Against Acarapis woodi Parasites
In this evaluation, honeybees (Apis mellifera) which are infested with Acarapis woodi (trachea mites) are dissected to remove the infested tracheae. Glass microscope slides are dipped into acetone solutions of tebufenpyrad (500 ppm)and the acetone is allowed to evaporate. Infested tracheae are placed directly on the treated slides. The mites are removed from the tracheae by dissection and forced to walk across the treated area. The elapsed time is recorded for 100% mortality, i.e. no movement is observed upon agitation.

For `CCc1nn(C)c(C(=O)NCc2ccc(C(C)(C)C)cc2)c1Cl` [Tebufenpyrad, N-(4-t-butylbenzyl)-4-chloro-3-ethyl-1-methylpyrazole-5-carboxamide], the “Treatment mites/day (dead mites trapped on stickyboard)” value (Varroa jacobsoni; Hive 1, pretreatment 101 mites/day) was 1777 mites/day, the “Treatment mites/day (dead mites trapped on stickyboard)” value (Varroa jacobsoni; Hive 2, pretreatment 66 mites/day) was 1080 mites/day and the mortality at 0.006 µg/bee ([1]; 0.006 μg/bee) was 58%. For the same molecule, the mortality at 0.06 µg/bee ([1]; 0.06 μg/bee) was 44%, the mortality at 0.6 µg/bee ([1]; 0.6 μg/bee) was 92% and the mortality at 0.006 µg/bee ([2]; 0.006 μg/bee) was 24%. The mortality at 0.06 µg/bee ([2]; 0.06 μg/bee) was 25%, the mortality at 0.6 µg/bee ([2]; 0.6 μg/bee) was 28% and the “Time required to achieve 100% mortality” value ([3]; Rep. 1, 7 mites) was 8.5 min. For the same molecule, the “Time required to achieve 100% mortality” value ([3]; Rep. 2, 10 mites) was 8 min and the “Time required to achieve 100% mortality” value ([3]; Rep. 3, 7 mites) was 8 min.
